Source: patent US9920017B2, “Heterocyclic compounds as pesticides” (BAYER CROPSCIENCE AKTIENGESELLSCHAFT, priority 2014, dated 2018)
Like-named read-outs stand apart in the source and are kept apart here.

Tests used:
Boophilus microplus = Boophilus microplus injection test; format: in vivo; conditions: 20 μg/animal injected into engorged adult female cattle ticks; assessed after 7 days by laying of fertile eggs
Procedure: Boophilus microplus—Injection Test
(§1) Solvent: dimethyl sulphoxide
To produce an appropriate active ingredient formulation, 10 mg of active ingredient are mixed with 0.5 ml of solvent and the concentrate is diluted with solvent to the desired concentration.
1 μl of the active ingredient solution is injected into the abdomen of 5 engorged adult female cattle ticks (Boophilus microplus). The animals are transferred into dishes and kept in a climate-controlled room.
Efficacy is assessed after 7 days by laying of fertile eggs. Eggs which are not visibly fertile are stored in a climate-controlled cabinet for about another 42 days until the larvae hatch. An efficacy of 100% means that none of the ticks has laid any fertile eggs; 0% means that all the eggs are fertile.

Meloidogyne incognita = Meloidogyne incognita test (MELGIN); format: in vivo; conditions: 20 ppm; lettuce; after 14 days
Procedure: Meloidogyne incognita Test (MELGIN) Solvent: 125.0 parts by weight of acetone To produce a suitable active ingredient formulation, 1 part by weight of active ingredient is mixed with the stated amount of solvent and the concentrate is diluted with water to the desired concentration. Vessels are filled with sand, active ingredient solution, an egg/larvae suspension of the southern root-knot nematode (Meloidogyne incognita) and lettuce seeds. The lettuce seeds germinate and the plants develop. The galls develop on the roots. After 14 days, the nematicidal efficacy in % is determined by the formation of galls. 100% means that no galls were found; 0% means that the number of galls on the treated plants corresponds to the untreated control.

[1] = Determination of log P values by HPLC (reversed-phase C18); format: physicochemical; conditions: for chromatographic logP: reversed-phase C18 HPLC column
Procedure: 1) Description of Method for Determination of the Log P Values ([…]) The log P values given in the table were determined in accordance with EEC Directive 79/831 Annex V.A8 by HPLC (High Performance Liquid Chromatography) using a reversed-phase column (C 18). Temperature: 55° C. […] Gradient: from 10% eluent A/90% eluent B to 95% eluent A/5% eluent B in 4.25 min. Calibration was effected with unbranched alkan-2-ones (having 3 to 16 carbon atoms) with known log P values (log P values determined on the basis of the retention times by linear interpolation between two successive alkanones). The lambda max values were determined in the maxima of the chromatographic signals using the UV spectra from 200 nm to 400 nm.

Cooperia curticei = Cooperia curticei test; format: in vivo; conditions: 20 ppm; nematode larvae; after 5 days
Procedure: as §1
To produce an appropriate active ingredient formulation, 10 mg of active ingredient are mixed with 0.5 ml of dimethyl sulphoxide and the concentrate is diluted with “Ringer's solution” to the desired concentration.
Vessels containing the active ingredient formulation of the desired concentration are populated with about 40 nematode larvae (Cooperia curticei).
After 5 days, the kill in % is determined 100% means that all the larvae have been killed; 0% means that none of the larvae have been killed.

[2] = HPLC, reversed-phase C18, 55° C., final compounds table
[3] = HPLC-MS, preparation examples, read-out: log P (neutral)

| Structure (SMILES) | efficacy (Boophilus microplus) [%] | nematicidal efficacy (formation of galls) (Meloidogyne incognita) [%] | log P neutral [1, 2] | efficacy (kill) (Cooperia curticei) [%] | chromatographic logP [1, 3] | chromatographic logP ([1]; pH 3.4, HPLC-MS, preparation examples, read-out: log P) | chromatographic logP ([1]; HPLC, reversed-phase C18, 55° C., final compounds table, read-out: log P neutral) |
| --- | --- | --- | --- | --- | --- | --- | --- |
| O=C(Nc1ncn(-c2ccccc2OC(F)(F)F)n1)c1ccccc1C(F)(F)F [Compound I-1-10] | 100 | 100 | 2.51 |  |  |  |  |
| O=C(Nc1ncn(-c2c(F)cccc2F)n1)c1cc(F)ccc1C(F)(F)F [Compound I-1-19] |  | 100 | 2.09 |  |  |  |  |
| O=C(Nc1ncn(-c2c(F)cccc2F)n1)c1c(F)cccc1C(F)(F)F [Compound I-1-20] |  | 100 | 2.04 | 100 |  |  |  |
| O=C(Nc1ncn(-c2c(F)cccc2F)n1)c1ccccc1[N+](=O)[O-] [Compound I-1-22] |  | 90 | 1.54 |  |  |  |  |
| O=C(Nc1ncn(-c2c(F)cccc2C(F)(F)F)n1)c1ccccc1C(F)(F)F [Compound I-1-26] |  | 100 | 2.25 | 90 |  |  |  |
| O=C(Nc1ncn(-c2c(F)cccc2C(F)(F)F)n1)c1ccccc1Cl [Compound I-1-27] |  | 90 | 2.06 |  |  |  |  |
| O=C(Nc1ncn(-c2c(F)cccc2C(F)(F)F)n1)c1ccccc1I [Compound I-1-28, N-{1-[2-Fluoro-6-(trifluoromethyl)phenyl]-1H-1,2,4-triazol-3-yl}-2-iodobenzamide] |  | 100 |  | 80 | 2.21 |  |  |
| CCc1ccccc1C(=O)Nc1ncn(-c2c(F)cccc2C(F)(F)F)n1 [Compound I-1-29] |  | 100 | 2.39 |  |  |  |  |
| O=C(Nc1ncn(-c2c(F)cccc2Br)n1)c1ccccc1C(F)(F)F [Compound I-1-30, 2-Trifluoromethyl-N-[1-(2-bromo-6-fluorophenyl)-1H-1,2,4-triazol-3-yl]benzamide] | 100 | 100 |  | 80 | 2.15 |  |  |
| O=C(Nc1ncn(-c2c(F)cccc2Br)n1)c1ccccc1Cl [Compound I-1-31] |  | 100 | 1.95 |  |  |  |  |
| O=C(Nc1ncn(-c2c(F)cccc2Br)n1)c1ccccc1I [Compound I-1-32] |  | 100 | 2.08 |  |  |  |  |
| O=C(Nc1ncn(-c2c(F)cccc2Cl)n1)c1ccccc1I [Compound I-1-35] |  | 100 | 2.04 |  |  |  |  |
| Cc1cccc(Cl)c1-n1cnc(NC(=O)c2ccccc2C(F)(F)F)n1 [Compound I-1-40] |  | 90 | 2.26 |  |  |  |  |
| CCc1cccc(Cl)c1-n1cnc(NC(=O)c2ccccc2C(F)(F)F)n1 [Compound I-1-42] |  | 90 | 2.55 |  |  |  |  |
| O=C(Nc1ncn(-c2c(Cl)cccc2Cl)n1)c1ccccc1C(F)(F)F [Compound I-1-44] | 90 | 100 | 2.26 |  |  |  |  |
| O=C(Nc1ncn(-c2c(Cl)cccc2Cl)n1)c1ccccc1Br [Compound I-1-45] |  | 100 | 2.09 |  |  |  |  |
| O=C(Nc1ncn(-c2c(Cl)cccc2Cl)n1)c1ccccc1Cl [Compound I-1-46] |  | 90 | 2.03 |  |  |  |  |
| O=C(Nc1ncn(-c2c(F)ccc(F)c2F)n1)c1ccccc1C(F)(F)F [Compound I-1-57] | 90 | 100 | 2.10 | 100 |  |  |  |

| Structure (SMILES) | efficacy (Boophilus microplus) [%] | nematicidal efficacy (formation of galls) (Meloidogyne incognita) [%] | log P neutral [1, 2] | efficacy (kill) (Cooperia curticei) [%] | chromatographic logP [1, 3] | chromatographic logP ([1]; pH 3.4, HPLC-MS, preparation examples, read-out: log P) | chromatographic logP ([1]; HPLC, reversed-phase C18, 55° C., final compounds table, read-out: log P neutral) |
| --- | --- | --- | --- | --- | --- | --- | --- |
| O=C(Nc1ncn(-c2c(F)ccc(F)c2F)n1)c1ccccc1Cl [Compound I-1-58] |  | 100 | 1.91 |  |  |  |  |
| O=C(Nc1ncn(-c2c(F)ccc(F)c2F)n1)c1ccccc1I [Compound I-1-59] | 100 | 100 | 2.03 | 90 |  |  |  |
| CCc1ccccc1C(=O)Nc1ncn(-c2c(F)ccc(F)c2F)n1 [Compound I-1-60] |  | 100 | 2.21 |  |  |  |  |
| O=C(Nc1ncn(-c2c(F)cc(F)cc2F)n1)c1ccccc1C(F)(F)F [Compound I-1-61] |  | 100 | 2.05 | 80 |  |  |  |
| O=C(Nc1ncn(-c2c(F)cc(F)cc2F)n1)c1ccccc1Cl [Compound I-1-62] |  | 100 | 1.85 |  |  |  |  |
| O=C(Nc1ncn(-c2c(F)cc(F)cc2F)n1)c1ccccc1I [Compound I-1-63] |  | 100 | 2.00 | 100 |  |  |  |
| CCc1ccccc1C(=O)Nc1ncn(-c2c(F)cc(F)cc2F)n1 [Compound I-1-64] |  | 100 | 2.14 |  |  |  |  |
| O=C(Nc1ncn(-c2c(F)c(F)c(F)c(F)c2F)n1)c1ccccc1C(F)(F)F [Compound I-1-65] | 100 |  | 2.49 |  |  |  |  |
| O=C(Nc1ncn(-c2c(F)c(F)c(F)c(F)c2F)n1)c1ccccc1I [Compound I-1-67] |  | 90 | 2.43 |  |  |  |  |
| O=C(Nc1ncn(-c2ccccc2Br)n1)c1ccccc1C(F)(F)F [Compound I-1-70] |  | 90 | 2.15 | 80 |  |  |  |
| O=C(Nc1ncn(-c2ccccc2I)n1)c1ccccc1C(F)(F)F [Compound I-1-75] |  | 90 | 2.20 |  |  |  |  |
| O=C(Nc1ncn(-c2c(Br)cccc2Br)n1)c1ccccc1C(F)(F)F [Compound I-1-80] |  | 100 | 2.32 |  |  |  |  |
| O=C(Nc1ncn(-c2c(F)cccc2I)n1)c1ccccc1C(F)(F)F [Compound I-1-83] |  | 100 | 2.21 | 80 |  |  |  |
| O=C(Nc1ncn(-c2c(F)cccc2I)n1)c1ccccc1I [Compound I-1-85] |  | 100 | 2.15 | 80 |  |  |  |
| O=C(Nc1ncn(-c2c(Br)cc(F)cc2Br)n1)c1ccccc1C(F)(F)F [Compound I-1-87] |  | 90 | 2.46 |  |  |  |  |
| O=C(Nc1ncn(-c2ncc(F)cc2F)n1)c1ccccc1C(F)(F)F [Compound I-1-89, N-[1-(3,5-Difluoropyridin-2-yl)-1H-1,2,4-triazol-3-yl]-2-(trifluoromethyl)benzamide] |  | 100 |  |  |  | 1.76 | 1.76 |
| O=C(Nc1ncn(-c2c(F)c(F)cc(F)c2F)n1)c1ccccc1Cl [Compound I-1-92] |  | 90 | 2.04 |  |  |  |  |
| O=C(Nc1ncn(-c2c(F)c(F)cc(F)c2F)n1)c1ccccc1C(F)(F)F [Compound I-1-93] |  | 100 | 2.23 |  |  |  |  |
